# Test results: US4065557A, “Amino sugars and their use in improving the meat:fat ratio in animals” (Bayer Aktiengesellschaft, priority 1974, dated 1977)
# What was measured:
# saccharase = biological target: T1, saccharase (Sus scrofa, UniProt P56729); assay: In vitro saccharase test; format: biochemical, pig; settings: for saccharase inhibitor specific activity: sucrose, pH 6.0, 35° C
# T1 construct: from tissue; host or cells: mucous membrane of the small intestine of the pig, solubilized according to Borgstrom and Dahlquist 1958
# Method: One saccharase inhibitor unit (SIU) is defined as the amount of inhibitor which inhibits two saccharase units to the extent of 50%. One saccharase unit (SU) is the amount of enzyme which under the test conditions specified splits 1 μmol of sucrose to glucose and fructose per minute. The μmols of glucose formed are determined quantitatively by means of the glucose oxidase reaction under conditions under which a further splitting of the sucrose by the saccharase no longer takes place. To carry out the test, 0.05 ml of solubilized saccharase [from the mucous membrane of the small intestine of the pig, according to B. Borgstrom, A. Dahlquist, Acta Chem. Scand. […] The mixture is equilibrated for 10 minutes at 35° C and 0.1 ml of an 0.05 M sucrose solution in 0.1 m sodium maleate buffer of pH 6.0, pre-warmed to 35° C, is then added. The mixture is incubated for 20 minutes at 35° C, the saccharase reaction is stopped by addition of 1 ml of glucose oxidase reagent, and the incubation is continued for a further 30 minutes at 35° C. […] Thereafter, 1 ml of 50% strength H2 SO4 is added and a measurement carried out at 545 nm against a corresponding blank.
# Solubility = format: physicochemical
# pancreas-α-amylase = biological target: T2, pancreas-α-amylase (Sus scrofa, UniProt P00690); assay: In vitro amylase test; format: biochemical; settings: isolated product; starch, pH 6.9, 35° C
# T2 sequence (P00690 16-511): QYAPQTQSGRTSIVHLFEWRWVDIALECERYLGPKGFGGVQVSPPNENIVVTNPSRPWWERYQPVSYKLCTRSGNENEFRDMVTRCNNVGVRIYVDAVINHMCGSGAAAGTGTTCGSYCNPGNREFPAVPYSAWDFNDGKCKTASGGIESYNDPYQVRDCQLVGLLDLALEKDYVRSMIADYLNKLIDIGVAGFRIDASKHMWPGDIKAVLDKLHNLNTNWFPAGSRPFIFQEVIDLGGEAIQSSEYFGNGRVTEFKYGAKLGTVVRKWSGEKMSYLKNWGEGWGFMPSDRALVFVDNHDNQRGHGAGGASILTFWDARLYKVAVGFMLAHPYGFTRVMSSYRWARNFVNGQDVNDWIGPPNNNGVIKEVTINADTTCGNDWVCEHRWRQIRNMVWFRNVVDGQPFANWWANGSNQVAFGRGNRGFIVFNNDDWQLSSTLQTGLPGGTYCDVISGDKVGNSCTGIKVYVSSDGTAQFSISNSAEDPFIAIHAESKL
# Method: One amylase unit (AU) is the amount of enzyme which under the test conditions specified below splits 1 μequivalent of glucoside bonds in the starch per minute. […] To carry out the test, 0.1 ml of amylase solution (20-22 AU/ml) are mixed with 0-10 μg of inhibitor or 0-20 μl of the solution to be tested in 0.4 ml of 0.02 M sodium glycerophosphate buffer/0.001 M CaCl2, pH 6.9, and the mixture is equilibrated for 10-20 minutes in a water bath at 35° C. […] To develop the color, the batch is heated for 5 minutes on a boiling water bath and then cooled, and 10 ml of distilled water are added. The extinction at 540 nm is measured against a correspondingly made-up blank without amylase. […] The percentage inhibition is plotted as a function of the quotient [formula]
# starch digestion = assay: In vivo starch digestion (starch feeding test)
# T1 sequence (P56729 with tags, fused parts or gaps limits assumed): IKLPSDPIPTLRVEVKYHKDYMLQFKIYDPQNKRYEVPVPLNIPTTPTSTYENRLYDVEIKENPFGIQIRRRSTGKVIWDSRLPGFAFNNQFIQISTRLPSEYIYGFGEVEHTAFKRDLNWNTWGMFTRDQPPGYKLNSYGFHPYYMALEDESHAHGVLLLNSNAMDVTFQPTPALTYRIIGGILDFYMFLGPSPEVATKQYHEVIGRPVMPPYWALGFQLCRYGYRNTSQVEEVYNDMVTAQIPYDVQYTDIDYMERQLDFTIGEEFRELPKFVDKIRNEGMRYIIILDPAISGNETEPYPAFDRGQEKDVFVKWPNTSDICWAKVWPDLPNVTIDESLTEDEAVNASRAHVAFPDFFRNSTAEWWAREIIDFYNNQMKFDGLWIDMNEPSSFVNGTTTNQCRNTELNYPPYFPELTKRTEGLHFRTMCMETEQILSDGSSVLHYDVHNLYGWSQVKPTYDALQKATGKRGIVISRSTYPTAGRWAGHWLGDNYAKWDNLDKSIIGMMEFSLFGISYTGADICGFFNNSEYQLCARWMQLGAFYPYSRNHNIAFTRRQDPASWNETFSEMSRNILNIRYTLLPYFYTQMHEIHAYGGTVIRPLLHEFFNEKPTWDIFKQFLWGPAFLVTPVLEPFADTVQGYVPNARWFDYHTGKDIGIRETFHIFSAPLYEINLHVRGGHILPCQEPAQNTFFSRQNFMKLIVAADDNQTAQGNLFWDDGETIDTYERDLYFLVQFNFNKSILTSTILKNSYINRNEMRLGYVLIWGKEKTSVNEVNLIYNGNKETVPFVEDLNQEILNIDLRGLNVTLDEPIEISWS
# T1 sequence (P56729 with tags, fused parts or gaps partner limits assumed): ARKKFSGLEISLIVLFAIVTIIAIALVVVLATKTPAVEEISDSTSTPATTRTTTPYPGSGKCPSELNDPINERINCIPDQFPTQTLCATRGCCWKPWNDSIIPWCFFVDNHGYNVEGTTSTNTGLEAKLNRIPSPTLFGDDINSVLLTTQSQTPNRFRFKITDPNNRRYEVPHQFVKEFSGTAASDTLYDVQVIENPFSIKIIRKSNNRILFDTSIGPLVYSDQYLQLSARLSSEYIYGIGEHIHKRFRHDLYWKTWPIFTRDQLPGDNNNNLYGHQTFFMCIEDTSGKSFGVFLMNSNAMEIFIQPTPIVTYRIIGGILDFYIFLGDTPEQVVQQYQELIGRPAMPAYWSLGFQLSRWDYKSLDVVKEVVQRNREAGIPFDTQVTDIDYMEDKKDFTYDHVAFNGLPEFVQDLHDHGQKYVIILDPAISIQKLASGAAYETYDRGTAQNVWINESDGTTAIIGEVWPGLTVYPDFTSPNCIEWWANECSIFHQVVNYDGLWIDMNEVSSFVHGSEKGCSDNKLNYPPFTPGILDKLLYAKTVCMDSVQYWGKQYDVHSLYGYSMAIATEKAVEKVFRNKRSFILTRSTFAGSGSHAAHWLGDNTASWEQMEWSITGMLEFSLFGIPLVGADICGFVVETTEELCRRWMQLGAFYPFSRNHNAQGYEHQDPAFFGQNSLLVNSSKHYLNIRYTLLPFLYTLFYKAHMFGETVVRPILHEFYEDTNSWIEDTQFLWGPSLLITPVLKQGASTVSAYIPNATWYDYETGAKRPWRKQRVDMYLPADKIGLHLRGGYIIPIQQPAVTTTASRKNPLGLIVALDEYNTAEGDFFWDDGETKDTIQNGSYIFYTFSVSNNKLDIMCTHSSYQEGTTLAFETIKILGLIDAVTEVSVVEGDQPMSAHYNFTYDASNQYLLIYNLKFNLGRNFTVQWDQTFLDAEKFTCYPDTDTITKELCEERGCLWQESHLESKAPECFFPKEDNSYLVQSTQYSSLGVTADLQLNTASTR
SMILES,in vitro saccharase inhibition (in words) (saccharase; in vitro),saccharase inhibitor specific activity (saccharase),saccharase inhibitor specific activity (saccharase; listed as compound with 2 glucose units),saccharase inhibitor specific activity (saccharase; listed as compound with 2 units),saccharase inhibitor specific activity (saccharase; listed as compound with two glucose units),solubility in water (Solubility; amorphous solid),amylase inhibitor specific activity (pancreas-α-amylase),in vivo inhibition of starch digestion (in words) (starch digestion),in vitro saccharase inhibiting activity (saccharase; isomer isolated on Dowex 50 W X 4),saccharase inhibition relative to the derivative having two units (saccharase; in vitro),saccharase inhibitor specific activity (saccharase; listed as compound with one glucose unit),"solubility (Solubility; water, dimethylformamide, dimethylsulfoxide, methanol and hot ethanol)"
"C[C@H]1O[C@H](O[C@H]2[C@H](O)[C@@H](O)[C@@H](O[C@H]3[C@H](O)[C@@H](O)C(O)O[C@@H]3CO)O[C@@H]2CO)[C@H](O)[C@@H](O)[C@@H]1N[C@H]1C=C(CO)[C@@H](O)[C@H](O)[C@H]1O (stereo partly drawn) [compound having 2 glucose units, O-{4,6-bisdesoxy-4-[1 S-(1,4,6/5)-4,5,6-trihydroxy-3-hydroxymethylcyclohex-2-en-1-ylamino]-α-D-glucopyranosyl}-(1→4)-O-α-D-glucopyranosyl-(1→4)-D-glucopyranose]",most pronounced,"50,000 SIU/g","60,000 SIU/g","68,000 SIU/g","65,000 SIU/g",readily water-soluble,0.3 × 10^6 AIU/g,much higher than would be expected from in vitro amylase inhibition,,,,
"C[C@H]1O[C@H](O[C@H]2[C@H](O)[C@@H](O)[C@@H](O[C@H]3[C@H](O)[C@@H](O)[C@@H](O[C@H]4[C@H](O)[C@@H](O)C(O)O[C@@H]4CO)O[C@@H]3CO)O[C@@H]2CO)[C@H](O)[C@@H](O)[C@@H]1N[C@H]1C=C(CO)[C@@H](O)[C@H](O)[C@H]1O (stereo partly drawn) [isomer of Formula V, O-{4,5-bisdesoxy-4-[1S-(1,4,6/5)-4,5,6-trihydroxy-3-hydroxymethylcyclohex-2-en-1-ylamino]-α-D-glucopyranosyl}-(1→4)-O-α-D-glucopyranosyl-(1→4)-O-α-D-glucopyranosyl-(1→4)-D-glycopyranose]",,,,,,,,,"19,000 SIE/g",,,
"C[C@H]1O[C@H](O[C@H]2[C@H](O)[C@@H](O)C(O)O[C@@H]2CO)[C@H](O)[C@@H](O)[C@@H]1N[C@H]1C=C(CO)[C@@H](O)[C@H](O)[C@H]1O (stereo partly drawn) [compound having one glucose unit, O-{4,6-bisdesoxy-4-[1 S-(1,4,6/5)-4,5,6-trihydroxy-3-hydroxymethylcyclohex-2-en-1-ylamino]-α-D-glucopyranosyl}-(1→4)-D-glucopyranose]",,"30,000 SIU/g",,,,,0.3 × 10^6 AIU/g,much higher than would be expected from in vitro amylase inhibition,,only half as much,"35,000 SIU/g",good solubility
